Data taken from patent publication US20150152083A1, “Compounds and Compositions for Modulating EGFR Activity” (IRM LLC, A Delaware Limited Liability Company, priority 2012, published 2015).

What was measured:
EGFR (L858R) = target: T1, EGFR (L858R) (Homo sapiens, UniProt P00533, L858R); assay: EGFR target modulation in engineered NIH3T3 cell lines (phospho-EGFR AlphaLISA); format: cell-based; conditions: NIH3T3 cells expressing human EGFR L858R; 3 hours compound
T1 construct: host or cells: NIH3T3
T1 sequence (P00533 25-1210 L858R): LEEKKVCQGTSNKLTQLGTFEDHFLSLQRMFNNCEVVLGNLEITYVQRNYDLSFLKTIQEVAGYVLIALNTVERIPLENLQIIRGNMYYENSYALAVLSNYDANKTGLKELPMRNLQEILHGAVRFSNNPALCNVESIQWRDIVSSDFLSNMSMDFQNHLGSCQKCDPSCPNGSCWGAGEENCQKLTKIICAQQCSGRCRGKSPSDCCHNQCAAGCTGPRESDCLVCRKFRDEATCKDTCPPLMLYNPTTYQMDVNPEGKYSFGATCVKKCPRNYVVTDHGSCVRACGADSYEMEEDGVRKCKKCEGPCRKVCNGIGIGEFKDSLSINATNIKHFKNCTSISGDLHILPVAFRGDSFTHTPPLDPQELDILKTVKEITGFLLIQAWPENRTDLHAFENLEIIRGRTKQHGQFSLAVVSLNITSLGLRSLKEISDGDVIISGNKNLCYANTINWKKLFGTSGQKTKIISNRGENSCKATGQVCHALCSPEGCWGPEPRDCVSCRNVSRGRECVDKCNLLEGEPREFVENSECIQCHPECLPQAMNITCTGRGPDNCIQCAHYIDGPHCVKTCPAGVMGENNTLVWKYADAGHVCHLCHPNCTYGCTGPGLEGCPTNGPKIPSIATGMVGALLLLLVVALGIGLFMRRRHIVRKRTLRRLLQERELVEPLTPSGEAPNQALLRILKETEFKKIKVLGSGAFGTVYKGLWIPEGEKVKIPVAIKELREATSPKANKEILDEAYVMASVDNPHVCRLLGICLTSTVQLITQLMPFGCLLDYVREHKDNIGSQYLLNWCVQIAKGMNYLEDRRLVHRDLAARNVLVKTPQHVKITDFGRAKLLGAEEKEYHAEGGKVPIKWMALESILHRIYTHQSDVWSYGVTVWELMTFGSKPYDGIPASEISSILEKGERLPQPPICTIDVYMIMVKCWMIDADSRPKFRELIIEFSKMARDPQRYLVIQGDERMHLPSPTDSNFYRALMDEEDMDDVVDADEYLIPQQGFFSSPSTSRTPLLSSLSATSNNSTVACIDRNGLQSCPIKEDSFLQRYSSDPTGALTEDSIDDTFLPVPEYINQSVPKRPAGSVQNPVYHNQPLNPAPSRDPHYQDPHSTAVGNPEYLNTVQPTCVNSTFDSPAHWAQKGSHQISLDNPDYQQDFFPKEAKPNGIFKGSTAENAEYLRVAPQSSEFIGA
Experimental: (§1) EGFR Target Modulation in Engineered NIH3T3 Cell Lines
(§2) NIH3T3 cell lines expressing human EGFR (WT, L858R, and L858RT790M) (obtained from Matthew Meyerson's Lab at DFCI) were maintained in 10% FBS/DMEM supplemented with 100 μg/ml Penicillin/Streptomycin (Hyclone #SV30010) and 2 μg/ml Puromycin. The cells were harvested with 0.05% Trypsin/EDTA (Hyclone #SH30236.01), re-suspended in 5% FBS/DMEM Pen/Strep without Puromycin and plated at 9,000 cells per well in 50 μl of media in a 384-well black plate with clear bottoms (Greiner #789068G). The cells were allowed to incubate overnight in a 37° C., 5% CO2 humidified tissue culture incubator. A 12-point test compound curve was prepared by serial diluting a 10 μM stock 1:3 in DMSO in a 384-well compound plate (Greiner #789201L). The serial diluted compounds were transferred to the plate containing cells by using a 50 nl Pin Head device (Perkin Elmer) and the cells were placed back in the incubator for 3 hours. Only the EGFR WT-expressing cells were induced with 50 ng/ml EGF (Preprotech #AF-100-15) for 5 minutes before lysis. The media was removed and cells were lysed in 25 μl of Lysis buffer containing protease and phosphatase inhibitors (1% Triton X-100, 20 mM Tris, pH 7.5, 1 mM EDTA, 1 mM EGTA, 150 mM NaCl, 1× complete cocktail inhibitor (Roche #11 697 498 001), 1× Phosphatase Inhibitor Cocktail Set II and Set III (Sigma #P5726 and #P0044)). The plates were shaken at 4° C. for 5 minutes with foil top at maximum speed. An aliquot of 5 μl from each well was transferred to ProxiPlate™ 384-well Plus plates (PE #6008289). The plates were sealed with a foil top and frozen at −80° C. and thawed when needed.
(§3) The frozen aliquots were thawed and briefly centrifuged. All antibodies and beads were diluted in 1× AlphaLISA HiBlock Buffer (PE #AL004C). Biotinylated anti-phospho-EGFR (Y1068) (Cell Signaling #4031) was incubated with the lysate for 1 hour at room temperature at 1 nM final concentration. Goat anti-total EGFR (R&D Systems #AF231) was added and allowed to equilibrate for 1 hour at room temperature at 1 nM final concentration. Then, 10 μl of mixed beads (AlphaScreen Streptavidin Donor Beads (PE #6760002S) and AlphaLISA anti-goat IgG Acceptor Beads (PE #AL107C)) was equilibrated for 1.5 hours before reading on EnVision plate reader using the built-in settings for AlphaScreen.
(§4) Cells untreated (L858R and L858RT790M) or EGF-induced (WT) were set to 100% maximum response. For a negative control, 10 μM HKI-272 was used to normalize data to 0% of maximum response. With these parameters, the IC50's for each compound in each cell line was calculated using non-linear curve fitting analysis.

EGFR (WT) = target: T2, EGFR (WT) (Homo sapiens, UniProt P00533); assay: as above; format: cell-based; conditions: NIH3T3 cells expressing human EGFR WT; 3 hours compound; induced with 50 ng/ml EGF
T2 construct: host or cells: NIH3T3
T2 sequence (P00533 25-1210): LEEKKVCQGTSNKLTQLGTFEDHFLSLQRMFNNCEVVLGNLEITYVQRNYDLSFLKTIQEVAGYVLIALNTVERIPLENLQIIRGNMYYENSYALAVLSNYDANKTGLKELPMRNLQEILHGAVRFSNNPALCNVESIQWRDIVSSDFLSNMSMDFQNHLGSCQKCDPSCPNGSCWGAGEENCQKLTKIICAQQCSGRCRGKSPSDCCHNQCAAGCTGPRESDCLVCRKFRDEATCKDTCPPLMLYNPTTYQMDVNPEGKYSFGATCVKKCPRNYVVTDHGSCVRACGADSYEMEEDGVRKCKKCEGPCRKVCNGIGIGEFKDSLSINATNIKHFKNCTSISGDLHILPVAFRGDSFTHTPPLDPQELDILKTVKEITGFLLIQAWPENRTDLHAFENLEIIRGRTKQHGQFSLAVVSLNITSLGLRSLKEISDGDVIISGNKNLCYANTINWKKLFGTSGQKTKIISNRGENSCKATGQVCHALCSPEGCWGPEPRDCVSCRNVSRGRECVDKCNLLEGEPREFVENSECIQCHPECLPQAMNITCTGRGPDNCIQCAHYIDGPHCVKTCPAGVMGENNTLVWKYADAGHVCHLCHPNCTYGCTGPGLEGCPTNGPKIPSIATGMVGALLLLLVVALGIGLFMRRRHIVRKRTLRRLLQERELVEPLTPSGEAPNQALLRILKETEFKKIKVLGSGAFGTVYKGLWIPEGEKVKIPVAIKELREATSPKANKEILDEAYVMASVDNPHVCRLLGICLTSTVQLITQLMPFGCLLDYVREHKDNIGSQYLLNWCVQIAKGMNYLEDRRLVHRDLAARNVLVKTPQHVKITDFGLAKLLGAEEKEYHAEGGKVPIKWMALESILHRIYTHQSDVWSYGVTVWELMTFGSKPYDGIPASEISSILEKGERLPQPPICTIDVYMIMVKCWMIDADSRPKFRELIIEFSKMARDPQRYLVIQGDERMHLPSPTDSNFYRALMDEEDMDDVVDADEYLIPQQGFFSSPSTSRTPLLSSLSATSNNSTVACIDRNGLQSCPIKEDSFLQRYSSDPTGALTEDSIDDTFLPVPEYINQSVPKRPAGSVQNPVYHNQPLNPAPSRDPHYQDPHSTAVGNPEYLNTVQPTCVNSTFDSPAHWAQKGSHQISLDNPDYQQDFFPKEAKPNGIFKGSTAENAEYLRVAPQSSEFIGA
Experimental: as §1, §2, §3, §4

EGFR(L858R/T790M) [1] = target: T3, EGFR(L858R/T790M) (Homo sapiens, UniProt P00533, L858R/T790M); assay: EGFR biochemical assay (HTRF), IC50 determination; set-up: purchased from Carna (GST-a.a. 669-1210); purchased Carna; conditions: 10 μM ATP
Experimental: All EGFR biochemical assays were carried out by HTRF method. The EGFR(L858RT790M) enzyme were purchased from Carna (GST-a.a. 669-1210). The substrate peptide Biotin-TK-peptide was purchased from Cis-Bio. The reaction mixtures contained 1 μM peptide substrate, 10 μM ATP, and 0.036 nM EGFR(L858RT790M) in the reaction buffer (50 mM HEPES pH 7.1, 10 mM MgCl2, 0.01% BSA, 1 mM TCEP and 0.1 mM Na3VO4) at a final volume of 10 μL. All reactions were carried out at room temperature in white ProxiPlate™ 384-well Plus plates (PerkinElmer) and were quenched with 5 μL of 0.2 M EDTA at 60 min Five μL of the detection reagents (2.5 ng PT66K and 0.05 μg SAXL per well) were added, the plates were incubated at room temperature for 1 h and then read in EnVision reader. […] For no-preincubation condition, the compounds were added to the assay solution containing ATP and peptide, and the reaction was initiated by addition of enzyme. For pre-incubation conditions, the compounds were added to the assay solution containing enzyme and peptide, and pre-incubated at room temperature for desired period of time, then the reaction was initiated by addition of ATP.
Target sequence in this assay (P00533 669-1210 T790M/L858R): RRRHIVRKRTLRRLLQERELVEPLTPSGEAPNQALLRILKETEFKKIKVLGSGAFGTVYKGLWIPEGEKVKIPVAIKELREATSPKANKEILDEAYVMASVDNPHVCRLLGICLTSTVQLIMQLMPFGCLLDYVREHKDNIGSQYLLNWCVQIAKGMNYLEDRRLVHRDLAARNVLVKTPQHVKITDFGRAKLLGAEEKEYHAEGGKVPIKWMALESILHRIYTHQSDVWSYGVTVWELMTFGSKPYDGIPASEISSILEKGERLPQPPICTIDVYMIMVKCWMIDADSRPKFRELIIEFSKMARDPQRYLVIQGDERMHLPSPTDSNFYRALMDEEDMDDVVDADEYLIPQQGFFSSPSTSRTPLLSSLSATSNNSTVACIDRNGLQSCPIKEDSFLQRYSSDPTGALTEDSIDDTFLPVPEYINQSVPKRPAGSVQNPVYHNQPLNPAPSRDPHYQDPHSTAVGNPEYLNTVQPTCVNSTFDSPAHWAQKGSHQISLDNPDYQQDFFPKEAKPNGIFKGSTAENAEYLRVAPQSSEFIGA

EGFR(L858R/T790M) [2] = target: T3, EGFR(L858R/T790M); assay: EGFR target modulation in engineered NIH3T3 cell lines (phospho-EGFR AlphaLISA); format: cell-based; set-up: host or cells: NIH3T3; conditions: NIH3T3 cells expressing human EGFR L858R/T790M; 3 hours compound
Experimental: as §1, §2, §3, §4
Target sequence in this assay (P00533 25-1210 T790M/L858R): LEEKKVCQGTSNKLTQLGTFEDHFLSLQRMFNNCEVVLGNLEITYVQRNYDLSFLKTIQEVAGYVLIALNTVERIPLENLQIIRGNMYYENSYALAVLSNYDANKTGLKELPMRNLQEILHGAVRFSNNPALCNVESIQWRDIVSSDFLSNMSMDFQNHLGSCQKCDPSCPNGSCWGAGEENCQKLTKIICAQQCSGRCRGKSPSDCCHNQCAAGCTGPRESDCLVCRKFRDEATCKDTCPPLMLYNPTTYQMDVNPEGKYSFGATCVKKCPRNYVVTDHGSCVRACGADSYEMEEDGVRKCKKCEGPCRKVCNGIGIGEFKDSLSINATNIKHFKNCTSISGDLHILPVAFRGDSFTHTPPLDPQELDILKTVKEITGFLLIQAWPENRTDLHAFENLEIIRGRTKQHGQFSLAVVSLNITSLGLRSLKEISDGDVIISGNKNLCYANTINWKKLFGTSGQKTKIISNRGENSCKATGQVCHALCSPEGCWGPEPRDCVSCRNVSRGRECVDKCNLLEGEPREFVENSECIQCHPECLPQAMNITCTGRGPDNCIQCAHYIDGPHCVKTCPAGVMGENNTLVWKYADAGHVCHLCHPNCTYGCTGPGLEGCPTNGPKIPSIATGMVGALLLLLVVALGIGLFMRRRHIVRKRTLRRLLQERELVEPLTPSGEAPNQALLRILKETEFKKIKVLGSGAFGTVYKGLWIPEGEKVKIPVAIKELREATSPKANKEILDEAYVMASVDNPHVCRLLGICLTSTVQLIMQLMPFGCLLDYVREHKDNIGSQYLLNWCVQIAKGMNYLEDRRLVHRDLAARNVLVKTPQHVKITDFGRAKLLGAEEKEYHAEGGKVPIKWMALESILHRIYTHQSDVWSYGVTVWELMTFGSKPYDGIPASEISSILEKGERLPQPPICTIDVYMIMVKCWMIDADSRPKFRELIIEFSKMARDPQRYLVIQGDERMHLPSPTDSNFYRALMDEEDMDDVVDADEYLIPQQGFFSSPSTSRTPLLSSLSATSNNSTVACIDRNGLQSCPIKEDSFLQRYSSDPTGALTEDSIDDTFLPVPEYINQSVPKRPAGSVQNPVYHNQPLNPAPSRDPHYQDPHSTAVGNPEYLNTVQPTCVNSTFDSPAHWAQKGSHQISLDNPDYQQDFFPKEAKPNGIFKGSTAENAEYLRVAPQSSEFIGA

[3] = EGFR (L858R/T790M) IC50 (μM) 90 min pre-incubation, 90 min pre-incubation
[4] = no pre-incubation, read-out: EGFR (L858R/T790M) IC50 (μM) No pre-incubation

IC50 (EGFR (L858R)) [µM] | IC50 (EGFR (WT)) [µM] | IC50 (EGFR(L858R/T790M) [1]; [3]) [µM] | IC50 (EGFR(L858R/T790M) [1]; [4]) [µM] | IC50 (EGFR(L858R/T790M) [2]) [µM] | SMILES
1.3 | > 10 | 0.012 | 0.14 | 0.17 | C=CC(=O)Nc1cccc(-n2c(NC(=O)c3cccc(C)c3)nc3cc(C)ccc32)c1 [Example 2-5, 3-methyl-N-{5-methyl-1-[3-(prop-2-enamido)phenyl]-1H-1,3-benzodiazol-2-yl}benzamide]
0.023 | > 10 | < 0.001 | 0.006 | 0.007 | C=CC(=O)Nc1cccc(-n2c(NC(=O)c3cccc(-c4ccccc4)c3)nc3cc(C)ccc32)c1 [Example 2-7, N-{5-methyl-1-[3-(prop-2-enamido)phenyl]-1H-1,3-benzodiazol-2-yl}-3-phenylbenzamide]
